{"source": "patent US20120282167A1", "about": "“METHOD FOR PREDICTING THE SENSITIVITY OF A TUMOR TO AN EPIGENETIC TREATMENT” (INSTITUT CURIE, priority 2009, published 2012)", "format_in_all_cases": "cell-based, human", "key": {"[1]": {"test_system": "genes located in the regions of downregulation in cell line CL1207", "assay": "Re-expression of genes in the regions of downregulation, RT-qPCR, CL1207 cell line", "conditions": "for re-expression of genes in downregulated regions 2-7, 3-2, 3-5, 7-2, 14-1, 19-3A and 19-3B: 300 nM TSA 16 hours, 5 μM 5-aza-deoxycytidine 72 hours, or 5 μM 5-aza-deoxycytidine 48 hours followed by 300 nM TSA 10 hours; for re-expression of genes in regions 6-7 and 17-7: same treatments, effect if fold-change >1.5", "description": "FIG. 3: […] The treatments were scored as having an effect (resulting in re-expression) if the fold-change between treated and non-treated was greater than 1.5. […] With both methods, all samples were run in duplicate. For all experiments involving […] and CL1207 both methods were used."}, "[2]": {"test_system": "H3K9me3, H3K27me3 and H3K9ac at gene promoters in CL1207 cells", "assay": "Chromatin immunoprecipitation (ChIP) of histone modifications in CL1207 before and after TSA", "conditions": "300 nM TSA for 16 h", "description": "FIG. 5: Analyses of epigenetic modifications in regions 2-7 and 19-3A (a) Schematic map of region 2-7 (not to scale) with CpG islands, according to the UCSC browser. The number of CpG in each island is indicated. (b) DNA methylation analyses for region 2-7: bisulfite sequencing analyses for CpG 141 and CpG 39 covering a promoter region. In each case, T1207 DNA, CL1207 DNA, NHU DNA and SssI-methylated DNA (“Met. DNA”) were studied. Each row represents an individual clone, and each box (methylated in black, unmethylated in white) represents an individual CpG site. The curved arrows indicate the transcription start sites. (c) ChIP assays were performed for promoters in region 2-7 with antibodies against trimethyl H3K9 (left panel), trimethyl H3K27 (middle panel) and acetyl H3K9 (right panel). […] (d) Schematic map of region 19-3A with CpG islands. (e) ChIP analyses for region 19-3A as in (c).\nFIG. 6: Analyses of epigenetic modifications in region 3-2. (a) Schematic map of region 3-2 (not to scale) with CpG islands, according to the UCSC browser. The number of CpGs in each island is indicated. (b) DNA methylation analyses for region 3-2: bisulfite sequencing analyses for the three CpGs covering a promoter region: CpG 74, 59 and 68. In each case, DNA from T1207, CL1207 and NHU and SssI-methylated DNA (“Met. DNA”) were studied. Each row represents an individual clone and each box represents an individual CpG site. A black box indicates methylation and a white box no methylation. The curved arrows indicate the transcription start sites. (c) Methylation analysis of DLEC1 promoter by bisulfite sequencing in five tumor samples showing downregulation of region 3-2: T195, T259, T447, T910 and T1448. […]\nChromatin immunoprecipitation (ChIP) assays were carried out in duplicate in three 150 cm^2 dishes for untreated CL1207, CL1207 treated with 300 nM TSA for 16 h, TCCSUP, RT112 and NHU cells. […] The amount of immunoprecipitated target was determined by real-time PCR, in duplicate, using the ABI PRISM 7900HT Sequence Detection System. […]"}, "[3]": {"test_system": "cell lines without the RES phenotype (MGHU3, RT112 and T24) and NHU cells", "assay": "Trichostatin A sensitivity assay (living cells counted after 72 hours, treated versus non-treated)", "conditions": "doses 100 nM to 500 nM, read-out: IC50 (half maximal inhibitory concentration), growth inhibition", "protocol": "(§1) FIG. 13: Cell viability after treatment with various doses of trichostatin A in bladder cancer cell lines with or without the RES phenotype and NHU cells. The percentage of surviving treated versus non-treated cells as a function of TSA concentration for various bladder cancer (MGHU3, RT112, T24, TCCSUP, HT1376, JMSU1, CL1207) and normal (NHU) cell lines is indicated. The number of cells surviving post treatment with TSA for 72 hours was counted and compared to control (no treatment) cultures. Cell lines with the RES phenotype are indicated with full symbols (TCCSUP, HT1376, JMSU1, CL1207) whereas cell lines without the RES phenotype (NHU, MGHU3, RT112, T24) are indicated with empty symbols. The error bars indicate the mean variation between two independent experiments.\n(§2) All bladder cancer and NHU cell lines were seeded in 12-well plates at a density of 5×10^4 cells/well. Cultures were treated the next day, in duplicate, with various doses of trichostatin A, from 100 nM to 500 nM, with two wells left untreated. After 72 hours, the living cells in each treated well were harvested and counted and compared to the numbers of cells in the non-treated wells. The resulting ratio was used to assess sensitivity to trichostatin A.\n(§3) The RES phenotype was characterized by strong histone K9 and K27 methylation and K9 hypoacetylation, but extremely rare DNA methylation. […]"}, "[4]": {"test_system": "cell lines with the RES phenotype (TCCSUP, HT1376, JMSU1 and CL1207)", "assay": "Trichostatin A sensitivity assay (living cells counted after 72 hours, treated versus non-treated)", "conditions": "on average for TCCSUP, doses 100 nM to 500 nM, read-out: IC50 (half maximal inhibitory concentration), growth inhibition", "protocol": "as §1, §2, §3"}, "[5]": {"test_system": "genes within the seven epigenetic regions in NHU, MGHU3, RT112 and T24 cells", "assay": "Re-expression of genes of the seven RES regions after TSA, RT-qPCR (TLDA), NHU, MGHU3, RT112 and T24", "protocol": "(§4) FIG. 10: Characterization of the regional epigenetic phenotype in bladder cancer cell lines. (a) Comparison of mRNA expression for genes in region 2-7 before and after treatment with TSA in bladder cancer cell lines and NHU cells; results obtained for the CL1207 cells (from FIG. 3) are also shown. Transcript values were measured by RT-qPCR using TLDA (see Materials and Methods in experimental section). The ratio between treated and non-treated cells is shown. Error bars represent the variation between the means of two independent experiments of TSA treatment. (b) Same comparison for region 3-2. (c) Same comparison for region 19-3A. (d) Summary of the effects of TSA treatment on all bladder cancer and NHU cell lines studied. Only groups of genes in which at least two genes were re-expressed after treatment are considered (see FIG. 11). (e) ChIP analysis in TCCSUP and RT112 cells for regions 2-7, 3-2 and 19-3A, with an antibody against trimethyl residues on lysine 9 of histone 3.\n(§5) FIG. 11: Comparison of the mRNA levels of the genes in regions 3-5, 7-2, 14-1 and 19-3B in bladder cancer and normal cells before and after treatment with TSA. mRNA levels were assessed by RT-qPCR using TLDA (see Materials and Methods in experimental section). The ratio between treated versus non-treated cells is shown. Error bars represent the variation between two independent experiments. […]"}, "[6]": {"test_system": "genes within the seven epigenetic regions in TCCSUP, HT1376 and JMSU1 cells", "assay": "Re-expression of genes of the seven RES regions after TSA, RT-qPCR (TLDA), cell lines TCCSUP, HT1376 and JMSU1", "protocol": "as §4, §5"}, "[7]": {"conditions": "most of the genes in all three regions"}}, "data": [{"smiles": "Nc1ccccc1NC(=O)c1ccc(CNC(=O)OCc2cccnc2)cc1", "note": "[MS275]", "values": [{"measurement": "gene re-expression in repressed regions on chromosome 3 (VILL to ACAA1) and 2 (HOXD8 to HOXD1)", "setting": "[1]; compared with TSA, effect if ratio >1.5", "value": "enabled gene re-expression in the studied regions as well as did TSA"}]}, {"smiles": "Nc1ncn([C@H]2C[C@H](O)[C@@H](CO)O2)c(=O)n1", "note": "[5-aza-deoxycytidine]", "values": [{"measurement": "re-expression of genes in downregulated regions 2-7, 3-2, 3-5, 7-2, 14-1, 19-3A and 19-3B", "setting": "[1]; effect if ratio >1.5", "value": "reexpression of most of the genes in seven regions"}, {"measurement": "genes re-expressed after 5-aza-deoxycytidine treatment alone", "setting": "[1]; BSN (3-5), SKAP2, HOXA4, HOXA5 (7-2), EFS, AP1G2 (14-1), 5 μM, 72 hours", "value": "re-expressed"}, {"measurement": "re-expression of genes in regions 6-7 and 17-7", "setting": "[1]", "value": "either to no re-expression or re-expression of only one isolated gene"}]}, {"smiles": "CC(/C=C/C(=O)NO)=C\\[C@@H](C)C(=O)c1ccc(N(C)C)cc1", "note": "[TSA, trichostatin A]", "values": [{"measurement": "H3K9 and H3K27 trimethylation at promoters of BSN, HOXA1, DHRS2 and JAK3 (regions 3-5, 7-2, 14-1, 19-3B)", "setting": "[2]", "value": "these marks were decreased"}, {"measurement": "levels of active mark (H3K9ac) at promoters, regions 2-7, 3-2 and 19-3A", "setting": "[2]; [7]", "value": "increased the levels of the active mark"}, {"measurement": "levels of inactive marks (H3K9me3, H3K27me3) at promoters, regions 2-7, 3-2 and 19-3A", "setting": "[2]; [7]", "value": "decreased the levels of the inactive marks"}, {"measurement": "IC50", "setting": "[3]", "value": 500, "unit": "nM"}, {"measurement": "IC50", "setting": "[4]", "value": 100, "unit": "nM"}, {"measurement": "re-expression of the regions in RT112 cells", "setting": "[5]; RT112, TSA treatment", "value": "no region was re-expressed, except two genes in region 7-2"}, {"measurement": "re-expression of genes within the seven epigenetic regions", "setting": "[5]; first group: NHU, MGHU3, RT112 and T24, 300 nM TSA 16 hours", "value": "most of the genes were not re-expressed, except for a few isolated genes in some cell lines"}, {"measurement": "re-expression of genes in downregulated regions 2-7, 3-2, 3-5, 7-2, 14-1, 19-3A and 19-3B", "setting": "[1]; effect if ratio >1.5", "value": "reexpression of most of the genes in seven regions"}, {"measurement": "re-expression of genes in regions 6-7 and 17-7", "setting": "[1]", "value": "either to no re-expression or re-expression of only one isolated gene"}, {"measurement": "re-expression of the regions in TCCSUP cell line", "setting": "[6]; TCCSUP, TSA treatment", "value": "all regions were re-expressed"}, {"measurement": "re-expression of genes within the seven epigenetic regions", "setting": "[6]; second group: TCCSUP, HT1376 and JMSU1, 300 nM TSA 16 hours", "value": "gene re-expression was observed for most of the silenced regions after treatment"}]}]}
